Laboratory results reported in US10898458B2, “Self-micellizing fatty acids and fatty acid ester compositions and their use in the treatment of disease states” (Micelle BioPharma, Inc., priority 2013, dated 2021).

Assays:
[1] = in humans; cited from earlier work
[2] = molecular target: COX-1 (Homo sapiens, UniProt P23219); settings: enzyme involved in synthesis of TXA2; cited from earlier work
[3] = system: porcine model of SBS; assay: Small intestine resection and final organ weights, porcine SBS model; format: in vivo, piglets; settings: at sacrifice after 4 days; median ± IQR
Description: (§1) Newborn, crossbred (Hampshire×Landrace×Duroc×Yorkshire) piglets (n=10), were weighed, placed in cages in a heated room (˜30° C.), and were fed with a commonly available sow milk replacement formula. After an overnight fast, piglets underwent surgery for the placement of jugular and intragastric catheters for postoperative parenteral and enteral nutrition, respectively, and small bowel resection surgery. Following a 4-cm midline incision an 80% mid-jejunoileal resection was performed. The total amount of bowel resection was approximated using the following equation: total intestinal length=280 cm×body weight^0.60. A 20% remnant (˜60 cm total per kg BW) remained and was represented equally between proximal jejunum and ileum, representing ˜30 cm each remnant segment per kg bodyweight. ˜45 cm of jejunum distal to the ligament of Treitz and ˜45 cm of ileum proximal to the ileocecal junction were measured using sterile silk ribbon placed along the antimesentric border of the gently stretched small intestine. Intestine not included in the measurement was removed via cauterization. Bowel continuity was restored using an end-to-end jejunoileal anastomosis.
(§2) The control group received a standard DHA ethyl ester preparation of substantially pure DHA ethyl ester (>90% DHA ethyl ester).
(§3) Samples of intestinal tissue resected at the time of surgery and remnants at sacrifice were collected from proximal jejunum (proximal to anastomosis) and distal ileum (distal to anastomosis) and morphological measurements of the crypts and villi were measured. Only intact villi and crypts were measured. All measurements were made by the same, single, blinded observer.
(§4) The primary outcome measure was a change in plasma DHA level in the SBS-treated group versus control group. Given the small number of piglets per group, appropriate small group statistical methods were used to evaluate differences in outcome variables. Variable summary statistics are expressed as median±interquartile range (IQR). The Wilcoxon Rank-Sum test, which is appropriate to compare two non-normal distributions as is common in small sample size, was used to compare outcome measures between groups; while the Wilcoxon signed-rank test, which is appropriate for repeated measurements within the same animal, was used to compare paired, before and after surgery outcome measures within groups. Differences in growth measurements and fatty acid levels over time between groups were evaluated using generalized linear mixed models (GLMM) to account for repeated measures and non-Gaussian, non-normal data.

[4] = Longitudinal plasma fatty acid levels, porcine SBS model; format: in vivo, piglets
Source text: as §2
Blood samples for systemic fatty acid profiles were obtained on the day of surgery and then twice daily until sacrifice on fourth postoperative day. Plasma fatty acids were isolated and measured.
as §4

[5] = system: porcine model of SBS; assay: Small bowel morphometry (villus height, crypt depth), porcine SBS model; format: in vivo, piglets; settings: within group
Description: as §2, §3, §4

[6] = system: porcine model of SBS; assay: Growth (weight) in neonatal porcine model of SBS; format: in vivo, piglets; settings: median ± IQR; for Change in weight: final minus starting weight, 4 days at 1 g/kg*day
Description: A study was conducted to evaluate, in an established porcine model of SBS, the systemic absorption and intestinal adaptation capacity of an ethyl ester form of DHA in combination with a surface active agent composition effective to spontaneously form micelles with said fatty acids upon contact with an aqueous media. In certain embodiments, the self-micellizing compositions may further contain at least one additional omega-3 fatty acid (either in the triglyceride, ester, or free fatty acid form), for example EPA or other known omega-3 fatty acids as disclosed herein. In certain embodiments, the self-micellizing compositions may further contain an anti-oxidant, such as tocopherol. In certain embodiments, the self-micellizing compositions may further contain an omega-6 fatty acid (either in the triglyceride, ester, or free fatty acid form), for example arachidonic acid (ARA), linoleic acid (LA), gamma-linolenic acid (GLA) or the omega-6 isomer of DPA, also known as osbond acid. This composition allows for micelle formation independent of the presence of bile salts as compared to a standard […] of DHA without a surface active agent (Control).
as §1
Continuous enteral feeding with a commonly available sow milk replacer formula, also lacking DHA, was slowly introduced 24 h after intestinal resection at 3 mL/kg*h via the intragastric catheter. The volume of enteral feedings was then advanced every 24 h by 1 ml/kg*h until a final enteral volume of 5 mL/kg*h was achieved on postoperative day 3 which represents approximately 50% of full enteral feeding volume and nutrient intake.
as §2
Piglets were weighed every other day. In addition to calculating a change in weight by subtracting the starting weight at the time of randomization from the final weight, percent weight change and growth velocity (g/kg*d) were also calculated. Percent weight change was calculated by: [((final weight-starting weight)/starting weight)×100]. Growth velocity was calculated by: [(weight change/starting weight)/4 days of treatment].
The primary outcome measure was a change in plasma DHA level in the SBS-treated group versus control group. […] Variable summary statistics are expressed as median±interquartile range (IQR). […]

[7] = system: patients with PSC; settings: 12-month open-label pilot study, n=23; cited from earlier work
[8] = Time 0, at the time of surgery (baseline)
[9] = within 12 hours, after the first enteral dose of DHA
[10] = end of experiment vs time of surgery

Sequence of COX-1 (P23219 24-599): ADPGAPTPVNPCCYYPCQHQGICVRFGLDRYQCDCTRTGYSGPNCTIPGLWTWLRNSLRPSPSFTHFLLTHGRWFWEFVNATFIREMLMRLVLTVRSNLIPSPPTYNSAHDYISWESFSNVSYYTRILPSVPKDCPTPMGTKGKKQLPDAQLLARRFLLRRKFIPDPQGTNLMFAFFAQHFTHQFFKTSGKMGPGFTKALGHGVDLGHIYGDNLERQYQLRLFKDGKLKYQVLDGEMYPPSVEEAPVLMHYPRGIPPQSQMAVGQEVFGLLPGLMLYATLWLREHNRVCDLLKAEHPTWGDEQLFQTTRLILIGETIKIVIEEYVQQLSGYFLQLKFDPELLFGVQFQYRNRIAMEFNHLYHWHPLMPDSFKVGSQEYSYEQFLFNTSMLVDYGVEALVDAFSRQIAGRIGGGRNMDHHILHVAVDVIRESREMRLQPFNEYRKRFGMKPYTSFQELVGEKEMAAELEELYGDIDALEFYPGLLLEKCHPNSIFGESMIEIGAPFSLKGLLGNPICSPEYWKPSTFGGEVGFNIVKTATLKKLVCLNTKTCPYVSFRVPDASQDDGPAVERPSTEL

CC/C=C\C/C=C\C/C=C\CCCCCCCC(=O)O [ALA, alpha-linolenic acid]
Conversion to DHA [1]: 2-5% | Conversion to EPA [1]: 5-10%

CC/C=C\C/C=C\C/C=C\C/C=C\C/C=C\CCCCCC(=O)O [Omega-3 DPA, all-cis-7,10,13,16,19-docosapentaenoic acid]
COX-1 activity [2]: potent inhibitor

CC/C=C\C/C=C\C/C=C\C/C=C\C/C=C\C/C=C\CCC(=O)OCC [Control, DHA ethyl ester]
Brain (final weight) [3]: 14.0 ± 1.6 g/kg | Ileum (final length) [3]: 17.5 ± 4.7 cm/kg | Ileum (final weight) [3]: 5.3 ± 1.2 g/kg | Jejunum (final length) [3]: 21.2 ± 6.7 cm/kg | Jejunum (final weight) [3]: 5.2 ± 1.4 g/kg | Liver (final weight) [3]: 36.3 ± 2.5 g/kg | Initial plasma ARA level [4, 8]: 11.8±0.5 mol % | Initial plasma DHA level [4, 8]: 2.3±0.4 mol % | Initial plasma EPA level [4, 8]: 0.3±0.1 mol % | Initial plasma LA level [4, 8]: 16.6±1.8 mol % | Plasma ARA level ([4]; third postoperative day): 8.7±0.8 mol % | Plasma DHA level [4, 9]: 2.5 mol % | Plasma EPA level [4, 9]: 0.2±0.005 mol % | Villus height of distal ileum, Final vs Day 0 [5, 10]: reduced, but not significantly different | Villus height of proximal jejunum, Final vs Day 0 [5, 10]: not significantly different | Crypt depth of distal ileum, final vs baseline [5]: increased from baseline | Crypt depth of proximal jejunum, final vs baseline ([5]; p<0.05): increased | Growth velocity ([6]; 4 days of treatment): 13.5 ± 30.1 g/kg/day | Weight change ([6]; 4 days of treatment): 5.4 ± 12.1% | Weight at finish ([6]; after 4 days at 1 g/kg*day via intragastric catheter): 2594 ± 170 g | Change in weight [6]: 132 ± 278 g | Change in weight ([6]; listed as control): 132 ± 278 g

CC/C=C\C/C=C\C/C=C\C/C=C\C/C=C\C/C=C\CCC(=O)O [DHA, (4Z,7Z,10Z,13Z,16Z,19Z)-docosa-4,7,10,13,16,19-hexaenoic acid]
Alkaline phosphatase [7]: significant decline | Serum DHA levels [7]: increase
